In BindingDB's records for doi:10.1016/j.bmc.2004.12.045 (Cnrs, 2005):
Counter-ions that a name gives are not always drawn.

Target: Glycogen synthase kinase-3 beta (Sus scrofa)
Experiment: Kinase activities were assayed in buffers containing substrate, enzyme, and inhibitor at 30 °C in the presence of 15 uM ATP/ [gamma-32P] ATP. 32P incorporation was measured with a scintillation counter. The IC50 is the inhibitor concentration, which inhibits 50% of kinase activity that catalyzes the transfer of the terminal phosphate from 32P l
Details: pH 7.5

Row | SMILES | IC50 [µM]
1 | Cc1nc2c(c3c4ccccc4n(CCN(C)C)c13)CNC2=O [10-[2-(dimethylamino)ethyl]-8-methyl-4,7,10-triazatetracyclo[7.7.0.0^{2,6}.0^{11,16}]hexadeca-1(9),2(6),7,11(16),12,14-hexaen-5-one] | 7
2 | Cc1cc2c(c3c4ccccc4n(COCC[Si](C)(C)C)c13)CNC2=O [5-Methyl-6-(2-trimethylsilanyl-ethoxymethyl)-1,2-dihydro-6H-pyrrolo[3,4-c]carbazol-3-one] | > 10
3 | Cc1c2c(c(C#N)c3c4ccccc4n(COCC[Si](C)(C)C)c13)C(=O)N(C)C2=O [2,4-dimethyl-1,3-dioxo-5-{[2-(trimethylsilyl)ethoxy]methyl}-1H,2H,3H,5H-pyrrolo[3,4-b]carbazole-10-carbonitrile] | > 10
4 | NCc1nc2c(c3c1[nH]c1ccccc13)CNC2=O [8-(aminomethyl)-4,7,10-triazatetracyclo[7.7.0.0^{2,6}.0^{11,16}]hexadeca-1(9),2(6),7,11(16),12,14-hexaen-5-one hydrochloride] | 5.5
5 | Cc1nc2c(c3c1[nH]c1ccccc13)CNC2=O [5-Methyl-1,2-dihydro-6H-2,4,6-triaza-cyclopenta[c]fluoren-3-one] | > 10
6 | O=C1c2nc(-c3ccccc3)c3[nH]c4ccccc4c3c2CN1Cc1ccccc1 [2-Benzyl-5-phenyl-1,2-dihydro-6H-2,4,6-triazacyclopenta[c]fluoren-3-one] | > 10
7 | Cc1nc2c(c3c1[nH]c1ccccc13)CN(CCN(C)C)C2=O [2-(2-Dimethylaminoethyl)-5-methyl-1,2-di-hydro-6H-2,4,6-triaza-cyclopenta[c]fluoren-3-one] | > 10
8 | CN(C)CC(=O)NCc1nc2c(c3c1[nH]c1ccccc13)CNC2=O [2-(dimethylamino)-N-({5-oxo-4,7,10-triazatetracyclo[7.7.0.0^{2,6}.0^{11,16}]hexadeca-1(9),2(6),7,11(16),12,14-hexaen-8-yl}methyl)acetamide] | 8
9 | Cc1cc(C)c(S(=O)(=O)NCc2nc3c(c4c2[nH]c2ccccc24)CNC3=O)c(C)c1 [2,4,6-Trimethyl-N-(3-oxo-1,2,3,6-tetrahydro-2,4,6-triaza-cyclopenta[c]fluoren-5-ylmethyl)-benzene-sulfonamide] | 1.5
10 | Cc1cc2c(c3c4ccccc4n(COCC[Si](C)(C)C)c13)C(=N)N(CCN(C)C)C2=O [4-[2-(dimethylamino)ethyl]-3-imino-8-methyl-10-{[2-(trimethylsilyl)ethoxy]methyl}-4,10-diazatetracyclo[7.7.0.0^{2,6}.0^{11,16}]hexadeca-1(9),2(6),7,11(16),12,14-hexaen-5-one] | > 10
11 | Cc1cc2c(c3c1[nH]c1ccccc13)CNC2=O [8-methyl-4,10-diazatetracyclo[7.7.0.0^{2,6}.0^{11,16}]hexadeca-1(9),2(6),7,11(16),12,14-hexaen-5-one] | > 10
12 | Cc1c2c(c(C#N)c3c4cc(Cl)ccc4n(COCC[Si](C)(C)C)c13)C(=O)N(C)C2=O [8-chloro-2,4-dimethyl-1,3-dioxo-5-{[2-(trimethylsilyl)ethoxy]methyl}-1H,2H,3H,5H-pyrrolo[3,4-b]carbazole-10-carbonitrile] | > 10
13 | Cc1c2c(c(CNC(=O)CN(C)C)c3c1[nH]c1ccccc13)C(=O)N(C)C2=O [{[({2,4-dimethyl-1,3-dioxo-1H,2H,3H,5H-pyrrolo[3,4-b]carbazol-10-yl}methyl)carbamoyl]methyl}dimethylazanium chloride] | > 10
14 | Cc1cc2c(c3c4ccccc4n(COCC[Si](C)(C)C)c13)C(=O)N(CCN(C)C)C2=O [2-[2-(dimethylamino)ethyl]-5-methyl-6-{[2-(trimethylsilyl)ethoxy]methyl}pyrrolo[3,4-c]carbazole-1,3(2H,6H)-dione] | > 10

Further lines, results first:

Row | IC50 [µM] | SMILES
15 | > 10 | Cc1c2c(c(CNC(=O)CN(C)C)c3c4ccccc4n(COCC[Si](C)(C)C)c13)C(=O)N(Cc1ccccc1)C2=O [N-[(2-benzyl-4-methyl-1,3-dioxo-5-{[2-(trimethylsilyl)ethoxy]methyl}-1H,2H,3H,5H-pyrrolo[3,4-b]carbazol-10-yl)methyl]-2-(dimethylamino)acetamide]
16 | > 10 | Cc1c2c(c(CNC(=O)CCN(C)C)c3c4ccccc4n(COCC[Si](C)(C)C)c13)C(=O)N(Cc1ccccc1)C2=O [N-[(2-benzyl-4-methyl-1,3-dioxo-5-{[2-(trimethylsilyl)ethoxy]methyl}-1H,2H,3H,5H-pyrrolo[3,4-b]carbazol-10-yl)methyl]-3-(dimethylamino)propanamide]
17 | > 10 | Cc1c2c(c(CN)c3c4ccccc4n(COCC[Si](C)(C)C)c13)C(=O)N(C)C2=O [10-(aminomethyl)-2,4-dimethyl-5-{[2-(trimethylsilyl)ethoxy]methyl}-1H,2H,3H,5H-pyrrolo[3,4-b]carbazole-1,3-dione]
18 | > 10 | Cc1c2c(c(CN)c3c4ccccc4n(COCC[Si](C)(C)C)c13)C(=O)N(Cc1ccccc1)C2=O [10-(aminomethyl)-2-benzyl-4-methyl-5-{[2-(trimethylsilyl)ethoxy]methyl}-1H,2H,3H,5H-pyrrolo[3,4-b]carbazole-1,3-dione]
19 | > 10 | Cc1c2c(c(CNC(=O)CN(C)C)c3c4ccccc4n(COCC[Si](C)(C)C)c13)C(=O)N(C)C2=O [N-[(2,4-dimethyl-1,3-dioxo-5-{[2-(trimethylsilyl)ethoxy]methyl}-1H,2H,3H,5H-pyrrolo[3,4-b]carbazol-10-yl)methyl]-2-(dimethylamino)acetamide]
20 | > 10 | Cc1c2c(c(CNC(=O)CCN(C)C)c3c4ccccc4n(COCC[Si](C)(C)C)c13)C(=O)N(C)C2=O [N-[(2,4-dimethyl-1,3-dioxo-5-{[2-(trimethylsilyl)ethoxy]methyl}-1H,2H,3H,5H-pyrrolo[3,4-b]carbazol-10-yl)methyl]-3-(dimethylamino)propanamide]
21 | > 10 | Cc1c2c(c(CNC(=O)CN(C)C)c3c1[nH]c1ccccc13)C(=O)N(Cc1ccccc1)C2=O [{[({2-benzyl-4-methyl-1,3-dioxo-1H,2H,3H,5H-pyrrolo[3,4-b]carbazol-10-yl}methyl)carbamoyl]methyl}dimethylazanium chloride]
